The values that follow come from patent US7803801B2, “Aminopyridine compounds having Syk inhibitory activity” (Japan Tobacco, Inc., priority 2005, dated 2010).

Structures can show the parent of a compound that is named as a salt. Where two headings read alike, the source gives them in different places. Some results are limits rather than exact numbers.

Experiment [1] addresses GST-Syk Full Protein (human) (Homo sapiens, UniProt P43405). Briefly: Syk kinase inhibition test (HTRF method). Format: biochemical. The method, boiled down:
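Human GST-Syk full-length (6.4 nM) phosphorylated biotin-EDPDYEWPSA-NH2 (250 nM) with 100 μM ATP in HEPES pH 7.0/MgCl2 buffer, 2% DMSO, 30 min at room temperature. EDTA stop, then HTRF detection (streptavidin-XL665, Eu anti-phosphotyrosine) after 1 h; 665/620 ratio read.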
For orientation: Time-resolved FRET reads energy transfer from a long-lived donor to a nearby acceptor.

The test system of experiment [2] is cultured human mast cells. Briefly: Degranulation inhibition test using cultured human mast cells (IgE cross-linking, β-Hexosaminidase release). The format is cell-based. Particulars: Mast cell, cultured human mast cells, read-out: human degranulation ave. IC50. The method, boiled down: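 CD34+ cord-blood cells cultured ≥8 weeks with SCF/IL-6/IL-3; FcεRI primed 5 days with rhIL-4 (1 ng/mL) and hIgE (0.5 μg/mL). Compound (0.1% DMSO) preincubated 10 min at 37 °C, then anti-IgE (final 10 μg/mL) 30 min; released β-hexosaminidase read at 405 nm versus total lysate, IC50 (M).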

Where [3] appears, read: Tables 1-x, compounds A, read-out: sykHTRF ave IC50.
[4] abbreviates: HTRF, 100 μM ATP, 30 min room temperature, average, read-out: sykHTRF ave IC50.
The mark [5] stands for this setting: anti-hIgE stimulation, β-Hexosaminidase index, average.
Setting [6] is: Tables 2-x, thiophene compounds B, read-out: sykHTRK ave IC50.
[7] abbreviates: Tables 2-x, thiophene compounds B.

As usually defined, the IC50 is the midpoint of a concentration-inhibition curve. As for `Cc1ccnc(Nc2cccc(-c3cnc(N4CCC(OCC(=O)O)CC4)s3)n2)c1` [Compound A-594, (1-{5-[6-(4-methylpyridin-2-ylamino)pyridin-2-yl]thiazol-2-yl}piperidin-4-yloxy)acetic acid dihydrochloride], the IC50 was below 100 nM in experiment [1] (setting [3]) and above 1000 nM in experiment [2] (Tables 1-x, compounds A).

Take `Cc1ccnc(Nc2cccc(-c3cnc([C@@H]4COC(C)(C)O4)s3)n2)c1` [Compound A-365]: the IC50 in experiment [1] (setting [4]) and in experiment [2] (setting [5]) was 100 to 1000 nM each time.

For `Cc1ccnc(Nc2cccc(-c3cnc(CN4CCC(N)CC4)s3)n2)c1` [Compound A-197, 1-{5-[6-(4-methylpyridin-2-ylamino)pyridin-2-yl]thiazol-2-ylmethyl}piperidin-4-ylamine], the IC50 in experiment [1] (setting [4]) is below 100 nM; in experiment [2] (setting [5]) it was 100 to 1000 nM.

Consider `CCOC(=O)CNC(=O)NCc1ncc(-c2cccc(Nc3cc(C)ccn3)n2)s1` [Compound A-252], for which the IC50 in experiment [1] (setting [4]) and in experiment [2] (setting [5]) was 100 to 1000 nM each time.

For the molecule `CC(=O)c1csc(-c2cccc(Nc3cc(C)ccn3)n2)c1` [Compound B-68], the IC50 in experiment [1] (setting [6]) is 100 to 1000 nM; in experiment [2] (setting [7]), above 1000 nM.

Regarding `COC(=O)CN1CCC(c2ncc(-c3cccc(Nc4cc(C)ccn4)n3)s2)CC1` [Compound A-184], the IC50 in experiment [1] (setting [4]) and in experiment [2] (setting [5]) was 100 to 1000 nM throughout.

`OCC1CCN(c2ncc(-c3cccc(Nc4cc(Cl)ccn4)n3)s2)C1` (centres unmarked) [Compound A-562, (1-{5-[6-(4-chloropyridin-2-ylamino)pyridin-2-yl]thiazol-2-yl}pyrrolidin-3-yl)methanol]: the half-inhibitory concentration (IC50) in experiment [1] (setting [3]) is below 100 nM; in experiment [2] (Tables 1-x, compounds A), below 100 nM.

As for `Cc1ccnc(Nc2cccc(-c3cnc(C(=O)NCCC(=O)O)s3)n2)c1` [Compound A-148, 3-({5-[6-(4-methylpyridin-2-ylamino)pyridin-2-yl]thiazole-2-carbonyl}amino)propionic acid], the figures for the 50% inhibitory concentration (IC50) in experiment [1] (setting [4]) and in experiment [2] (setting [5]) were below 100 nM and above 1000 nM, respectively.

For `CCOC(=O)CC(=O)N[C@@H](C)c1ncc(-c2cccc(Nc3cc(C)ccn3)n2)s1` [Compound A-122], the IC50 in experiment [1] (setting [4]) and in experiment [2] (setting [5]) was above 1000 nM throughout.

Regarding `Cc1ccnc(Nc2cccc(-c3cnc(CN4CCC(O)C4)s3)n2)c1` (centres unmarked) [Compound A-380], the IC50 in experiment [1] (setting [3]) lay in the range of 100 to 1000 nM; in experiment [2] (Tables 1-x, compounds A), 100 to 1000 nM.

Turning to `Cc1ccnc(Nc2cccc(-c3cnc([C@@H](N)CO)s3)n2)c1` [Compound A-13, (S)-2-amino-2-{5-[6-(4-methylpyridin-2-ylamino)pyridin-2-yl]thiazol-2-yl}ethanol], the IC50 in experiment [1] (setting [4]) and in experiment [2] (setting [5]) was 100 to 1000 nM throughout.

With `O=C(NO)[C@@H]1CCCN(c2ncc(-c3cccc(Nc4cc(Cl)ccn4)n3)s2)C1` [Compound A-552, N-hydroxy-(R)-1-{5-[6-(4-chloropyridin-2-ylamino)pyridin-2-yl]thiazol-2-yl}piperidine-3-carboxamide], the IC50 was below 100 nM in experiment [1] (setting [3]) and 100 to 1000 nM in experiment [2] (Tables 1-x, compounds A).

As for `CON(C)C(=O)c1ncc(-c2cccc(Nc3cc(C)ccn3)n2)s1` [Compound A-46, N-methoxy-N-methyl-5-[6-(4-methylpyridin-2-ylamino)pyridin-2-yl]thiazole-2-carboxamide], the IC50 in experiment [1] (setting [4]) is below 100 nM; in experiment [2] (setting [5]), 100 to 1000 nM.

Take `CNC(=O)c1ccc(-c2cccc(Nc3cc(C)ccn3)n2)s1` [Compound B-11, N-methyl-5-[6-(4-methylpyridin-2-ylamino)pyridin-2-yl]thiophene-2-carboxamide]: the IC50 is below 100 nM in experiment [1] (setting [6]) and 100 to 1000 nM in experiment [2] (setting [7]).

Take `CCC(=O)N1CCN(c2ncc(-c3cccc(Nc4cc(C)ccn4)n3)s2)CC1` [Compound A-440, 1-(4-{5-[6-(4-methylpyridin-2-ylamino)pyridin-2-yl]thiazol-2-yl}piperazin-1-yl)propan-1-one]: the IC50 in experiment [1] (setting [3]) is below 100 nM; in experiment [2] (Tables 1-x, compounds A), 100 to 1000 nM.

On to `Cc1ccnc(Nc2cccc(-c3ccc(C(=O)CCO)s3)n2)c1` [Compound B-57], for which the IC50 in experiment [1] (setting [6]) and in experiment [2] (setting [7]) was 100 to 1000 nM throughout.

Consider `CNC(=O)[C@@H]1CCCN1c1ncc(-c2cccc(Nc3cc(C)ccn3)n2)s1` [Compound A-488, N-methyl-(S)-1-{5-[6-(4-methylpyridin-2-ylamino)pyridin-2-yl]thiazol-2-yl}pyrrolidine-2-carboxamide dihydrochloride], for which the IC50 was below 100 nM in experiment [1] (setting [3]) and 100 to 1000 nM in experiment [2] (Tables 1-x, compounds A).

`COc1ccnc(Nc2cccc(-c3cnc(N4CCC(C(N)=O)CC4)s3)n2)c1` [Compound A-517, 1-{5-[6-(4-methoxypyridin-2-ylamino)pyridin-2-yl]thiazol-2-yl}piperidine-4-carboxamide]: the IC50 in experiment [1] (setting [3]) is below 100 nM; in experiment [2] (Tables 1-x, compounds A), 100 to 1000 nM.

With `Cc1ccnc(Nc2cccc(-c3cnc([C@@H]4CCC(=O)O4)s3)n2)c1` [Compound A-33, (S)-5-{5-[6-(4-methylpyridin-2-ylamino)pyridin-2-yl]thiazol-2-yl}dihydrofuran-2-one], the IC50 in experiment [1] (setting [4]) was below 100 nM; in experiment [2] (setting [5]), 100 to 1000 nM.

In the case of `Cc1ccnc(Nc2cccc(-c3cnc(CCc4ccc(C(=O)O)cc4)s3)n2)c1` [Compound A-151, 4-(2-{5-[6-(4-methylpyridin-2-ylamino)pyridin-2-yl]thiazol-2-yl}ethyl)benzoic acid], the half-inhibitory concentration (IC50) in experiment [1] (setting [4]) is below 100 nM; in experiment [2] (setting [5]), 100 to 1000 nM.

With `CC(=O)c1ccc(-c2cccc(Nc3cc(NC(C)C)ccn3)n2)s1` [Compound B-63], the IC50 in experiment [1] (setting [6]) and in experiment [2] (setting [7]) was above 1000 nM each time.

Consider `CC(=O)NCCCC[C@H](NC(C)=O)c1ncc(-c2cccc(Nc3cc(C)ccn3)n2)s1` [Compound A-64], for which the IC50 in experiment [1] (setting [4]) and in experiment [2] (setting [5]) was 100 to 1000 nM throughout.

For the molecule `Cc1ccnc(Nc2cccc(-c3cnc([C@H]4CC[C@@H](C#N)CC4)s3)n2)c1` [Compound A-317, cis-4-{5-[6-(4-methylpyridin-2-ylamino)pyridin-2-yl]thiazol-2-yl}cyclohexanecarbonitrile], the IC50 in experiment [1] (setting [4]) is below 100 nM; in experiment [2] (setting [5]), 100 to 1000 nM.

`Cc1ccnc(Nc2cccc(-c3cnc([C@@H]4CNC(=O)O4)s3)n2)c1` [Compound A-409, (S)-5-{5-[6-(4-methylpyridin-2-ylamino)pyridin-2-yl]thiazol-2-yl}oxazolidin-2-one]: the IC50 in experiment [1] (setting [3]) is below 100 nM; in experiment [2] (Tables 1-x, compounds A), below 100 nM.

On to `Cc1ccnc(Nc2cccc(-c3cnc(N4CC[C@@H](N)C4)s3)n2)c1` [Compound A-473, (R)-1-{5-[6-(4-methylpyridin-2-ylamino)pyridin-2-yl]thiazol-2-yl}pyrrolidin-3-ylamine], for which the IC50 in experiment [1] (setting [3]) was below 100 nM; in experiment [2] (Tables 1-x, compounds A), above 1000 nM.

`Cc1ccnc(Nc2cccc(-c3cc(C)c(C(=O)NC(C)(C)CO)s3)n2)c1` [Compound B-88]: the IC50 in experiment [1] (setting [6]) and in experiment [2] (setting [7]) was 100 to 1000 nM each time.

Turning to `Cc1ccnc(Nc2cccc(-c3cnc([C@H]4CC[C@H](CN)CC4)s3)n2)c1` [Compound A-219, trans-4-{5-[6-(4-methylpyridin-2-ylamino)pyridin-2-yl]thiazol-2-yl}cyclohexylmethylamine], the half-maximal inhibitory concentration (IC50) in experiment [1] (setting [4]) is below 100 nM; in experiment [2] (setting [5]), above 1000 nM.

With `CC(=O)c1ccc(-c2cccc(Nc3cc(N(C)C)ncn3)n2)s1` [Compound B-26], the IC50 in experiment [1] (setting [6]) is 100 to 1000 nM; in experiment [2] (setting [7]), above 1000 nM.

Take `Cc1ccnc(Nc2cccc(-c3cnc(N(CC(=O)N(C)C)[C@H]4CC[C@H](C(=O)O)CC4)s3)n2)c1` [Compound A-602]: the IC50 in experiment [1] (setting [3]) is 100 to 1000 nM; in experiment [2] (Tables 1-x, compounds A), above 1000 nM.

Consider `CON(C)C(=O)[C@H]1CC[C@H](c2ncc(-c3cccc(Nc4cc(C)ccn4)n3)s2)CC1` [Compound A-265], for which the IC50 in experiment [1] (setting [4]) and in experiment [2] (setting [5]) was 100 to 1000 nM throughout.

Regarding `CC(=O)N[C@@H]1CCN(c2ncc(-c3cccc(Nc4cc(C)ccn4)n3)s2)C1` [Compound A-472, N—((R)-1-{5-[6-(4-methylpyridin-2-ylamino)pyridin-2-yl]thiazol-2-yl}pyrrolidin-3-yl)acetamide], the IC50 was below 100 nM in experiment [1] (setting [3]) and 100 to 1000 nM in experiment [2] (Tables 1-x, compounds A).

As to `Cc1ccnc(Nc2cccc(-c3cnc(N4CCN(C)CC4)s3)n2)c1` [Compound A-432, N-{6-[2-(4-methylpiperazin-1-yl)thiazol-5-yl]pyridin-2-yl}-N-(4-methylpyridin-2-yl)amine], the half-inhibitory concentration (IC50) is below 100 nM in experiment [1] (setting [3]) and 100 to 1000 nM in experiment [2] (Tables 1-x, compounds A).

On to `Cc1ccnc(Nc2cccc(-c3cnc(CN4CCNC(=O)C4)s3)n2)c1` [Compound A-416, 4-{5-[6-(4-methylpyridin-2-ylamino)pyridin-2-yl]thiazol-2-ylmethyl}piperazin-2-one], for which the IC50 was below 100 nM in experiment [1] (setting [3]) and below 100 nM in experiment [2] (Tables 1-x, compounds A).

In the case of `Cc1ccnc(Nc2cccc(-c3ccc(C(O)C(C)C)s3)n2)c1` (centres unmarked) [Compound B-45], the concentration for half-maximal inhibition (IC50) is 100 to 1000 nM in experiment [1] (setting [6]) and above 1000 nM in experiment [2] (setting [7]).

Consider `CC(=O)N[C@H](c1ccc(OCc2ccccc2)cc1)c1ncc(-c2cccc(Nc3cc(C)ccn3)n2)s1` [Compound A-160], for which the results for the IC50 in experiment [1] (setting [4]) and in experiment [2] (setting [5]) were 100 to 1000 nM and above 1000 nM, respectively.

Turning to `CC(=O)N[C@@H](C)c1nc(C)c(-c2cccc(Nc3cc(C)ccn3)n2)s1` [Compound A-105], the IC50 in experiment [1] (setting [4]) is 100 to 1000 nM; in experiment [2] (setting [5]), above 1000 nM.

As for `CC(=O)NC(C)(C)Cc1ncc(-c2cccc(Nc3cc(C)ccn3)n2)s1` [Compound A-334, N-(1,1-dimethyl-2-{5-[6-(4-methylpyridin-2-ylamino)pyridin-2-yl]thiazol-2-yl}ethyl)acetamide], the IC50 in experiment [1] (setting [4]) and in experiment [2] (setting [5]) was below 100 nM in each case.
